Data set [1] in a line: crystalline form stability test (XRPD after storage at 40° C. and 60% RH for three months). The format is physicochemical. The procedure: In the present disclosure, the experimental conditions of X-ray powder diffraction are as follows. The test was performed by an X-ray powder diffractometer (radiation source Cu-kα, μ=1.5418 Å), and the XRPD spectrum with 2θ value of 3˜40° was scanned. The XRPD spectra of crystalline form I in Example 1 and crystalline form II in Example 2 are shown in FIG. 1 and FIG. 5, respectively, and the XRPD data are shown in Table 1. In order to test the stability of the crystalline form, the crystalline form I in Example 1 and the crystalline form II in Example 2 were subjected to powder diffraction test after being left under 40° C. and 60% relative humidity (RH) conditions for three months, and the results are shown in FIG. 1 and FIG. 5, respectively.
Crystalline form stability test: a certain amount of samples were left under 40° C. and 60% RH conditions for three months, and their powder diffraction results were tested, as shown in FIG. 1.
Crystalline form stability test: a certain amount of samples were left under 40° C. and 60% RH conditions for three months, and their powder diffraction results were tested, as shown in FIG. 5.

A short description of data set [2]: apparent solubility tested by HPLC. Conditions: for Chromatographic peak area: HPLC peak area of the apparent solubility test; for apparent solubility compared with raw material: HPLC, versus crude raw materials. The format is physicochemical.
The next data set has as its system Alzheimer's disease. The settings on record: background statement; cited from earlier work.

Molecules are shown by their SMILES. Values after ≈ are worked out from the molar mass of the structure shown.

As for `O=C(O)c1cc(NCCc2ccc(C(F)(F)F)cc2)ccc1O` [Crystalline form II, 2-hydroxy-5-[2-(4-(trifluoromethylphenyl)ethylamino)]benzoic acid], the “crystalline form stability (XRPD characteristic peaks versus initial time)” value in data set [1] is “relatively stable”. Also, in data set [2], the Chromatographic peak area worked out at 311308 and the “apparent solubility compared with raw material” value is “higher apparent solubility”. Also, the “Solubility (apparent solubility)” value in data set [2] (tested by HPLC) came to 2600 µg/mL (≈ 7.99 mM).
Turning to `O=C(O)c1cc(NCCc2ccc(C(F)(F)F)cc2)ccc1O` [Raw material, 2-hydroxy-5-[2-(4-(trifluoromethylphenyl)ethylamino)]benzoic acid], in data set [2], the Chromatographic peak area was 249333. Further, the solubility (as a rule, the dissolved amount per volume that the medium holds) in data set [2] (thermodynamic from solid, tested by HPLC) came to 1770 µg/mL (≈ 5.44 mM).
For `O=C(O)c1cc(NCCc2ccc(C(F)(F)F)cc2)ccc1O` [Crystalline form I, 2-hydroxy-5-[2-(4-(trifluoromethylphenyl)ethylamino)]benzoic acid], the “crystalline form stability (XRPD characteristic peaks versus initial time)” value in data set [1] was “stable and unchanged”. Moreover, in data set [2], the Chromatographic peak area was found to be 263684 and the “apparent solubility compared with raw material” value was “higher apparent solubility”. Besides, the “Solubility (apparent solubility)” value in data set [2] (tested by HPLC) worked out at 1880 µg/mL (≈ 5.78 mM).
Turning to `O=C(O)c1cc(NCCc2ccc(C(F)(F)F)cc2)ccc1O` [2-hydroxy-5-[2-(4-(trifluoromethylphenyl)ethylamino)]benzoic acid], the “effect on Alzheimer's disease in clinical trials” value with Alzheimer's disease is “good inhibitory effect on Alzheimer's disease”.

The values above are taken from patent publication US20240116853A1, “2-HYDROXY-5-[2-(4-(TRIFLUOROMETHYLPHENYL)ETHYLAMINO)]BENZOIC ACID CRYSTAL FORMS AND PREPARATION METHOD THEREFOR” (GNT PHARMA CO., LTD., priority 2020, published 2024).
